Measured values reported in patent US7122543B2, “Substituted benzoic acid derivatives having NF-κB inhibiting action” (Daiichi Suntory Pharma Co., Ltd., priority 2001, dated 2006).
In brackets after ≈: the same amount, converted by molar mass.

tested on: NF-κB; assay: NF-κB luciferase reporter assay in A549/NF-κBLuc cells stimulated with IL-1β; assay type: cell-based, human; conditions: A549/NF-κBLuc cells; compound added 1 hour before IL-1β, 3 hours more incubation; luciferase activity as index
Procedure: Effects of Compounds on Human Lung Cancer A549 Cells (A549/NF-κBLuc) Stably Transfected with Luciferase Plasmid (pNFκB-Luc, Stratagene, U.S.A.) Having the NF-κB Regulatory Sequence
Using lipofectamine (Lifetech Oriental K.K., Tokyo), pNFκB-Luc were cotransfected with pSV2neo (Clontech, U.S.A.) into A549 cells (ATCC CCL185) according to the conventional method, and A549/NF-κBLuc stably transfected with pNFκB-Luc were selected by adding G418 sulfate (1 mg/ml, Lifetech Oriental K.K.) to the culture medium.
A compound prepared in an Example was added to A549/NF-κBLuc, then IL-1β which was able to activate the NF-κB was added at 1 hour thereafter and incubation was continued for 3 hours more. It has been made clear by using a luciferase activity as an index that the compound obtained in the Example suppresses the activation of NF-κB by stimulated with IL-1β.

Row | SMILES | IC50 value
1 | COC1=C(OC)C(=O)C(Cc2ccc(-c3ccncc3)c(C(=O)N3CCCCC3)c2)=C(C)C1=O [Example 58a, N-[5-(5,6-Dimethoxy-3-methyl-1,4-benzoquinon-2-yl)methyl-2-(4-pyridyl)benzoyl]piperidine] | 15 µg/mL (≈ 32.6 µM)
2 | COC1=C(OC)C(=O)C(Cc2ccc(-c3ccncc3)c(C(=O)N3CCCCC3)c2)=C(C)C1=O [Example 58b, N-[5-(5,6-Dimethoxy-3-methyl-1,4-benzoquinon-2-yl)methyl-2-(4-pyridyl)benzoyl]piperidine] | 45 µg/mL (≈ 97.7 µM)

same assay, conditions: A549/NF-κBLuc cells; word printed in the IC50 column instead of a value

Row | SMILES | IC50 value (result in words)
3 | COc1c(C)c(Cc2ccc(C(=O)O)c(-c3cccnc3)c2)c(OC)c(OC)c1OC [Example 12, 4-(3,4,5,6-Tetramethoxy-2-methylbenzyl)-2-(3-pyridyl) benzoic acid] | toxic

same assay, conditions: Homo sapiens, A549, A549/NF-κBLuc cells; compound added 1 hour before IL-1β, 3 hours more incubation; luciferase activity as index

Row | SMILES | IC50
4 | COc1c(C)c(Cc2ccc(-c3cccnc3)c(C(=O)O)c2)c(OC)c(OC)c1OC [Example 14, 5-(3,4,5,6-Tetramethoxy-2-methylbenzyl)-2-(3-pyridyl)benzoic acid] | > 15 µg/mL
5 | COc1c(C)c(Cc2ccc(-c3ccncc3)c(C(=O)O)c2)c(OC)c(OC)c1OC [Example 15, 5-(3,4,5,6-Tetramethoxy-2-methylbenzyl)-2-(4-pyridyl)benzoic acid] | > 15 µg/mL
6 | COc1cccc(-c2ccc(Cc3c(C)c(OC)c(OC)c(OC)c3OC)cc2C(=O)O)c1 [Example 17, 5-(3,4,5,6-Tetramethoxy-2-methylbenzyl)-2-(3-methoxyphenyl)benzoic acid] | > 15 µg/mL
7 | COc1ccccc1-c1ccc(Cc2c(C)c(OC)c(OC)c(OC)c2OC)cc1C(=O)O [Example 18, 5-(3,4,5,6-Tetramethoxy-2-methylbenzyl)-2-(2-methoxyphenyl)benzoic acid] | > 15 µg/mL
8 | COC1=C(OC)C(=O)C(Cc2ccc(C(=O)O)c(-c3ccccc3)c2)=C(C)C1=O [Example 35, 4-(5,6-Dimethoxy-3-methyl-1,4-benzoquinon-2-yl)methyl-2-phenylbenzoic acid] | > 15 µg/mL
9 | COC1=C(OC)C(=O)C(Cc2ccc(C(=O)O)c(-c3cccnc3)c2)=C(C)C1=O [Example 36, 4-(5,6-Dimethoxy-3-methyl-1,4-benzoquinon-2-yl)methyl-2-(3-pyridyl)benzoic acid] | > 15 µg/mL
10 | COC1=C(OC)C(=O)C(Cc2ccc(-c3ccccc3)c(C(=O)O)c2)=C(C)C1=O [Example 37, 5-(5,6-Dimethoxy-3-methyl-1,4-benzoquinon-2-yl)methyl-2-phenylbenzoic acid] | > 45 µg/mL
11 | COC1=C(OC)C(=O)C(Cc2ccc(-c3cccnc3)c(C(=O)O)c2)=C(C)C1=O [Example 38, 5-(5,6-Dimethoxy-3-methyl-1,4-benzoquinon-2-yl)methyl-2-(3-pyridyl)benzoic acid] | > 45 µg/mL
12 | COC1=C(OC)C(=O)C(Cc2ccc(-c3ccncc3)c(C(=O)O)c2)=C(C)C1=O [Example 39, 5-(5,6-Dimethoxy-3-methyl-1,4-benzoquinon-2-yl)methyl-2-(4-pyridyl)benzoic acid] | > 30 µg/mL
13 | COC1=C(OC)C(=O)C(Cc2ccc(-c3ccc(OC)cc3)c(C(=O)O)c2)=C(C)C1=O [Example 40, 5-(5,6-Dimethoxy-3-methyl-1,4-benzoquinon-2-yl)methyl-2-(4-methoxyphenyl)benzoic acid] | > 45 µg/mL
14 | COC1=C(OC)C(=O)C(Cc2ccc(C(=O)Nc3ccc(C(F)(F)F)cc3)c(-c3ccccc3)c2)=C(C)C1=O [Example 45, N-[4-(5,6-Dimethoxy-3-methyl-1,4-benzoquinon-2-yl)methyl-2-phenylbenzoyl]-4-trifluoromethyl-aniline] | > 30 µg/mL
15 | COC1=C(OC)C(=O)C(Cc2ccc(C(=O)N3CCOCC3)c(-c3cccnc3)c2)=C(C)C1=O [Example 47, N-[4-(5,6-Dimethoxy-3-methyl-1,4-benzoquinon-2-yl)methyl-2-(3-pyridyl)benzoyl]morpholine] | 24 µg/mL
16 | COC1=C(OC)C(=O)C(Cc2ccc(C(=O)Nc3ccc(C(F)(F)F)cc3)c(-c3cccnc3)c2)=C(C)C1=O [Example 48, N-[4-(5,6-Dimethoxy-3-methyl-1,4-benzoquinon-2-yl)methyl-2-(3-pyridyl)benzoyl]-4-trifluoromethylaniline] | > 30 µg/mL
17 | COC1=C(OC)C(=O)C(Cc2ccc(C(=O)Nc3ccc(OC)cc3)c(-c3cccnc3)c2)=C(C)C1=O [Example 49, N-[4-(5,6-Dimethoxy-3-methyl-1,4-benzoquinon-2-yl)methyl-2-(3-pyridyl)benzoyl]-4-methoxy-aniline] | 24 µg/mL
18 | COC1=C(OC)C(=O)C(Cc2ccc(-c3ccccc3)c(C(=O)N3CCOCC3)c2)=C(C)C1=O [Example 51, N-[5-(5,6-Dimethoxy-3-methyl-1,4-benzoquinon-2-yl)methyl-2-phenylbenzoyl]morpholine] | > 30 µg/mL
19 | COC1=C(OC)C(=O)C(Cc2ccc(-c3ccccc3)c(C(=O)Nc3ccc(OC)cc3)c2)=C(C)C1=O [Example 52, N-[5-(5,6-Dimethoxy-3-methyl-1,4-benzoquinon-2-yl)methyl-2-phenylbenzoyl]-4-methoxyaniline] | > 45 µg/mL
20 | COC1=C(OC)C(=O)C(Cc2ccc(-c3ccccc3)c(C(=O)Nc3ccc(C(F)(F)F)cc3)c2)=C(C)C1=O [Example 53, N-[5-(5,6-Dimethoxy-3-methyl-1,4-benzoquinon-2-yl)methyl-2-phenylbenzoyl]-4-trifluoromethylaniline] | > 30 µg/mL
21 | COC1=C(OC)C(=O)C(Cc2ccc(-c3cccnc3)c(C(=O)N3CCCCC3)c2)=C(C)C1=O [Example 54, N-[5-(5,6-Dimethoxy-3-methyl-1,4-benzoquinon-2-yl)methyl-2-(3-pyridyl)benzoyl]piperidine] | 15 µg/mL
22 | COC1=C(OC)C(=O)C(Cc2ccc(-c3cccnc3)c(C(=O)N3CCOCC3)c2)=C(C)C1=O [Example 55, N-[5-(5,6-Dimethoxy-3-methyl-1,4-benzoquinon-2-yl)methyl-2-(3-pyridyl)benzoyl]morpholine] | > 45 µg/mL
23 | COC1=C(OC)C(=O)C(Cc2ccc(-c3cccnc3)c(C(=O)Nc3ccc(OC)cc3)c2)=C(C)C1=O [Example 56, N-[5-(5,6-Dimethoxy-3-methyl-1,4-benzoquinon-2-yl)methyl-2-(3-pyridyl)benzoyl]-4-methoxy-aniline] | > 45 µg/mL
24 | COC1=C(OC)C(=O)C(Cc2ccc(-c3cccnc3)c(C(=O)Nc3ccc(C(F)(F)F)cc3)c2)=C(C)C1=O [Example 57, N-[5-(5,6-Dimethoxy-3-methyl-1,4-benzoquinon-2-yl)methyl-2-(3-pyridyl)benzoyl]-4-trifluoromethylaniline] | > 30 µg/mL
25 | COC1=C(OC)C(=O)C(Cc2ccc(-c3ccncc3)c(C(=O)N3CCOCC3)c2)=C(C)C1=O [Example 59, N-[5-(5,6-Dimethoxy-3-methyl-1,4-benzoquinon-2-yl)methyl-2-(4-pyridyl)benzoyl]morpholine] | > 45 µg/mL
26 | COC1=C(OC)C(=O)C(Cc2ccc(-c3ccncc3)c(C(=O)Nc3ccc(OC)cc3)c2)=C(C)C1=O [Example 60a, N-[5-(5,6-Dimethoxy-3-methyl-1,4-benzoquinon-2-yl)methyl-2-(4-pyridyl)benzoyl]-4-methoxyaniline] | > 30 µg/mL
27 | COC1=C(OC)C(=O)C(Cc2ccc(-c3ccncc3)c(C(=O)Nc3ccc(OC)cc3)c2)=C(C)C1=O.Cl [Example 60b, N-[5-(5,6-Dimethoxy-3-methyl-1,4-benzoquinon-2-yl)methyl-2-(4-pyridyl)benzoyl]-4-methoxyaniline] | > 30 µg/mL
28 | COC1=C(OC)C(=O)C(Cc2ccc(-c3ccncc3)c(C(=O)Nc3ccc(C(F)(F)F)cc3)c2)=C(C)C1=O [Example 61, N-[5-(5,6-Dimethoxy-3-methyl-1,4-benzoquinon-2-yl)methyl-2-(4-pyridyl)benzoyl]-4-trifluoromethylaniline] | > 30 µg/mL
29 | COC1=C(OC)C(=O)C(Cc2ccc(-c3ccc(OC)cc3)c(C(=O)Nc3ccc(OC)cc3)c2)=C(C)C1=O [Example 64, N-[5-(5,6-Dimethoxy-3-methyl-1,4-benzoquinon-2-yl)methyl-2-(4-methoxyphenyl]benzoyl)-4-methoxyaniline] | 12 µg/mL
30 | COC1=C(OC)C(=O)C(Cc2ccc(-c3cccc(OC)c3)c(C(=O)N3CCCCC3)c2)=C(C)C1=O [Example 65, N-[5-(5,6-Dimethoxy-3-methyl-1,4-benzoquinon-2-yl)methyl-2-(3-methoxyphenyl)benzoyl]-piperidine] | 40 µg/mL
31 | COC1=C(OC)C(=O)C(Cc2ccc(-c3cccc(OC)c3)c(C(=O)N3CCOCC3)c2)=C(C)C1=O [Example 66, N-[5-(5,6-Dimethoxy-3-methyl-1,4-benzoquinon-2-yl)methyl-2-(3-methoxyphenyl)benzoyl]-morpholine] | 42 µg/mL
32 | COC1=C(OC)C(=O)C(Cc2ccc(-c3cccc(OC)c3)c(C(=O)Nc3ccc(OC)cc3)c2)=C(C)C1=O [Example 67, N-[5-(5,6-Dimethoxy-3-methyl-1,4-benzoquinon-2-yl)methyl-2-(3-methoxyphenyl)benzoyl]-4-methoxyaniline] | > 45 µg/mL
33 | COC1=C(OC)C(=O)C(Cc2ccc(-c3ccccc3OC)c(C(=O)Nc3ccc(OC)cc3)c2)=C(C)C1=O [Example 68, N-[5-(5,6-Dimethoxy-3-methyl-1,4-benzoquinon-2-yl)methyl-2-(2-methoxyphenyl)benzoyl]-4-methoxyaniline] | > 45 µg/mL

same assay, conditions: Homo sapiens, A549, same value printed in parentheses in μM; A549/NF-κBLuc cells, IL-1β stimulation, luciferase activity

Row | SMILES | IC50
34 | COC1=C(OC)C(=O)C(Cc2ccc(-c3cccnc3)c(C(=O)N3CCCCC3)c2)=C(C)C1=O [Example 54, N-[5-(5,6-Dimethoxy-3-methyl-1,4-benzoquinon-2-yl)methyl-2-(3-pyridyl)benzoyl]piperidine] | 33 µM
35 | COC1=C(OC)C(=O)C(Cc2ccc(-c3ccc(OC)cc3)c(C(=O)Nc3ccc(OC)cc3)c2)=C(C)C1=O [Example 64, N-[5-(5,6-Dimethoxy-3-methyl-1,4-benzoquinon-2-yl)methyl-2-(4-methoxyphenyl]benzoyl)-4-methoxyaniline] | 23 µM
36 | COC1=C(OC)C(=O)C(Cc2ccc(-c3cccc(OC)c3)c(C(=O)N3CCCCC3)c2)=C(C)C1=O [Example 65, N-[5-(5,6-Dimethoxy-3-methyl-1,4-benzoquinon-2-yl)methyl-2-(3-methoxyphenyl)benzoyl]-piperidine] | 82 µM
37 | COC1=C(OC)C(=O)C(Cc2ccc(-c3cccc(OC)c3)c(C(=O)N3CCOCC3)c2)=C(C)C1=O [Example 66, N-[5-(5,6-Dimethoxy-3-methyl-1,4-benzoquinon-2-yl)methyl-2-(3-methoxyphenyl)benzoyl]-morpholine] | 85 µM

same assay, conditions: same value printed in parentheses in μM; A549/NF-κBLuc cells, IL-1β stimulation, luciferase activity

Row | SMILES | IC50
38 | COC1=C(OC)C(=O)C(Cc2ccc(-c3ccncc3)c(C(=O)N3CCCCC3)c2)=C(C)C1=O [Example 58a, N-[5-(5,6-Dimethoxy-3-methyl-1,4-benzoquinon-2-yl)methyl-2-(4-pyridyl)benzoyl]piperidine] | 30 µM
39 | COC1=C(OC)C(=O)C(Cc2ccc(-c3ccncc3)c(C(=O)N3CCCCC3)c2)=C(C)C1=O [Example 58b, N-[5-(5,6-Dimethoxy-3-methyl-1,4-benzoquinon-2-yl)methyl-2-(4-pyridyl)benzoyl]piperidine] | 81 µM
